Data: ChEMBL document CHEMBL1150242, “Subinhibitory concentrations of antibiotics induce phenazine production in a marine Streptomyces sp” (2008)
Activity calls are given as the source filed them. The calls are words filed in the database; no cut-off is given here.

What was measured:
[1] = test system: Nakaseomyces glabratus; assay: Antibacterial activity against Candida glabrata; assay type: functional, organism-based
[2] = test system: Bacillus subtilis; assay: Antibacterial activity against Bacillus subtilis; assay type: functional
[3] = test system: Mammaliicoccus lentus; assay: Antibacterial activity against Staphylococcus lentus; assay type: functional
[4] = test system: Erwinia amylovora; assay: Antibacterial activity against Erwinia amylovora; assay type: functional, organism-based
[5] = test system: Ralstonia solanacearum; assay: Antibacterial activity against Ralstonia solanacearum; assay type: functional, organism-based
[6] = test system: Pseudomonas fluorescens; assay: Antibacterial activity against Pseudomonas fluorescens; assay type: functional, organism-based
[7] = test system: Pseudomonas syringae; assay: Antibacterial activity against Pseudomonas syringae; assay type: functional, organism-based
[8] = test system: Xanthomonas campestris; assay: Antibacterial activity against Xanthomonas campestris; assay type: functional, organism-based
[9] = test system: Escherichia coli; assay: Antibacterial activity against Escherichia coli; assay type: functional, organism-based

Row | SMILES | Activity [1] | Activity [2] | Activity [3] [µg/mL] | Activity [4] | Activity [5] | Activity [6] | Activity [7] | Activity [8] | Activity [9]
1 | CCCCC(O)C(C(=O)OC)c1cccc2nc3c(C(=O)OC)cccc3nc12 (stereo unspecified) [STREPTOPHENAZINE E] | inactive | 62.5 µg/mL |  |  |  |  |  |  | 
2 | COC(=O)c1cccc2nc3c(C(C(=O)OC)C(O)CCCCC(C)C)cccc3nc12 (stereo unspecified) [STREPTOPHENAZINE F] | inactive | inactive | 62.5 | inactive | inactive | inactive | inactive | inactive | inactive
3 | COC(=O)C(c1cccc2nc3c(C(=O)O)cccc3nc12)C(O)CCCC(C)C (stereo unspecified) [STREPTOPHENAZINE C] | inactive | 15.6 µg/mL | 46.9 | inactive | inactive | inactive | inactive | inactive | inactive
4 | COC(=O)c1cccc2nc3c(C(C(=O)OC)C(O)CCCC(C)C)cccc3nc12 (stereo unspecified) [STREPTOPHENAZINE A] | inactive | 46.9 µg/mL | 62.5 | inactive | inactive | inactive | inactive | inactive | inactive
5 | CCCCCCC(O)C(C(=O)OC)c1cccc2nc3c(C(=O)OC)cccc3nc12 (stereo unspecified) [STREPTOPHENAZINE B] | inactive | inactive | 62.5 | inactive | inactive | inactive | inactive | inactive | inactive
6 | COC(=O)c1cccc2nc3c(C(C(=O)OC)C(O)CCC(C)C)cccc3nc12 (stereo unspecified) [STREPTOPHENAZINE D] | inactive | 62.5 µg/mL |  |  |  |  |  |  | 
7 | CCC(C)CCCC(O)C(C(=O)OC)c1cccc2nc3c(C(=O)OC)cccc3nc12 (stereo unspecified) [STREPTOPHENAZINE G] | inactive | inactive | 62.5 | inactive | inactive | inactive | inactive | inactive | inactive
8 | COC(=O)c1cccc2nc3c(C(C(=O)OC)C(O)CCCC(C)(C)O)cccc3nc12 (stereo unspecified) [STREPTOPHENAZINE H] | inactive | 15.6 µg/mL |  |  |  |  |  |  | 
